Converted amounts (≈) assume the structure as drawn. Where two headings read alike, the source gives them in different places. No end group written: not given here.
Key:
S. aureus MW2 [1] = experiment: Checkerboard synergy of C18 with clinical antibacterial agents; assay type: cell-based, Staphylococcus aureus; conditions: for Kind of interaction with C18: named agent combined with C18, S. aureus MW2, checkerboard; for FICI (fractional inhibition concentration index): named agent combined with C18, S. aureus MW2, 8 × 8 checkerboard, synergy FICI ≤ 0.5, additive 0.5 < FICI ≤ 4, antagonism > 4
Protocol: The checkerboard assay was used to evaluate the synergy of C18 with conventional antibacterial agents against S. aureus MW2 [40]. Briefly, an 8 × 8 matrix was formed in a 96-well microtiter petri dish with two-fold serial dilutions of C18 combined with each conventional antibacterial agent. The fractional inhibition concentration index (FICI) was calculated: FICI = MIC of compound A in combination / MIC of compound A alone +MIC of compound B in combination / MIC of compound B alone.

S. aureus MW2 [2] = experiment: Propidium iodide membrane permeability; assay type: cell-based, Staphylococcus aureus; conditions: 32 µg/mL, 1 h incubation
Protocol: Fluorescence-based bacterial permeation assay was used to follow the membrane-oriented interactions of the designed peptides. The propidium iodide probe is generally used to establish a pore formation mechanism of AMPs. In short, S. aureus MW2 was inoculated in MHB and grown overnight at 37 °C overnight with shaking at 220 rpm. A fresh inoculation was done the next day in the same media to achieve exponential growth. The culture was then washed with PBS 3 times and adjusted to OD600 ~0.3 in PBS. We added 48 μL of this culture to a 96-well black clear-bottom plate (Cat no. 3904, Corning, NY, USA) containing 50 μL of serially diluted 2 × peptide concentrations, and 2 μL of propidium iodide (20 μM) was added per well. Fluorescence was measured by SpectraMax M2 (Molecular Devices, CA, USA) with an excitation wavelength of 584 nm and an emission wavelength of 620 nm after 1 h at room temperature.

S. aureus MW2 [3] = experiment: microbe, parasite or virus in culture; assay type: cell-based, Staphylococcus aureus; conditions: for MIC: Staphylococcus aureus, MW2, 18 h
Protocol: Broth microdilution assays determined the MICs of peptides following the method described by the Clinical and Laboratory Standards Institute. In short, for each peptide, serial dilutions (50 µL) in duplicates were made in Mueller-Hinton broth (BD, Franklin Lakes, NJ, USA) in a 96-well plate (Cat No. 3595, Corning, NY, USA). […] After bacterial addition, the plates were incubated at 37°C for 18 h. […] To investigate each peptide’s activity in high salt concentrations or human serum, the MIC was again tested as described in the previous paragraph of the experimental method. […] All MIC assays were conducted in duplicate, with each experiment replicated twice.

[4] = Rhodamine-BF dye leakage from liposomes; conditions: liposomes DOPC: Cholesterol, 55:40; 1 h incubation
Text: We also performed dye leakage experiments to further understand the membrane interactive nature of the peptides. A dye, rhodamine-BF, entrapped in liposomes (DOPC: Cholesterol, 55:40) was subjected to the action of the peptides.

human red blood cells = assay type: cell-based; conditions: for HL50 (50% of human red blood cells were lysed): 1 h
Protocol: The ability of the peptide to cause hemoglobin leakage was evaluated, as described in a previous study. Human erythrocytes were purchased from Rockland Immunochemicals (Limerick, PA, USA), washed 3 × times in equal volume PBS, and resuspended as 4% hRBCs solution. One hundred microliters of the blood cells were added to 100 µl of the peptide solution in PBS serially diluted from 4–128 µg/mL in a 96-well microtiter plate. PBS and 1% Triton-X 100 were used as […] controls. Upon adding the blood cells, the plate was incubated at 37 °C for 1 h and then centrifuged at 500× g for 5 min. One hundred microliters of the supernatant were transferred to a fresh 96-well plate, and absorbance was read at 540 nm. The hemolysis percentage was calculated considering 100% hemolysis caused by 1% Triton X-100 and 0% on PBS. The values were represented as the mean of duplicates. The following formula calculated the percentage of hemolysis: (A540 nm in the peptide solution − A540 nm in PBS)/(A540 nm of 1% Triton X-100 treated sample − A540 nm in PBS) × 100. Zero and 100% percentage hemolysis were determined in PBS and […], respectively.

G. mellonella larvae = experiment: Galleria mellonella toxicity; assay type: in vivo; conditions: uninfected larvae, doses 4, 8, 16, 32 mg/kg, even at 32 mg/kg, until 120 h, n = 16/group
Protocol: To study the protective effects of the peptide C18 in an in vivo model, we used an established wax moth model system. G. mellonella larvae (Vanderhorst Wholesale, St. Mary’s, OH, USA) were distributed as a different group with randomly selected larvae (n = 16/group). The S. aureus MW2 bacteria were grown to exponential phase from overnight culture. Cells were then washed with PBS three times and finally suspended in PBS with an OD600 = 0.3. Experimental groups consisted of untouched (no injection), PBS (vehicle), bacterial infection group, and treatment group. Vancomycin was used as a positive control. […] All injections were performed using a Hamilton syringe on the last left proleg. The larvae were incubated at 37 °C for 5 days, with live and dead counts being performed every 24 h.

HepG2 cells = experiment: Mammalian cell cytotoxicity (WST-1); assay type: cell-based, human; conditions: 64 µg/mL, HepG2, 24 h
Protocol: HepG2 cells were used to assess the mammalian cell cytotoxicity of AMPs, as described previously. Cells were grown in Dulbecco’s Modified Eagle Medium (DMEM) (Gibco, MD, USA) supplemented with 10% fetal bovine serum (FBS) (Gibco, MD, USA) and 1% penicillin/streptomycin (Gibco, MD, USA) and maintained at 37°C in 5% CO2. Cells were harvested and resuspended in a fresh medium, and 100 µL were distributed in a 96-well plate at […]. AMPs were serially diluted in serum and antibiotic-free DMEM added to the monolayer of the cells, and the plates were incubated at 37 °C in 5% CO2 for 24 h. At 4 h, before the end of the incubation period, 10 µL of 2-(4-iodophenyl)-3-(4-nitrophenyl)-5-(2, 4-disulfophenyl)-2H-tetrazolium (WST-1) solution (Roche, Mannheim, Germany) was added to each well. WST-1 reduction was monitored at 450 nm using a Vmax microplate reader. Assays were performed in triplicate, and the percentage of cell survival was calculated.

psGABO-SPE plasmid DNA = experiment: Plasmid band shift assay (DNA binding)
Protocol: The methods in the reference were used to detect the ability of C18 binding DNA [43]. Briefly, the reaction of 20 μL containing 100 ng psGABO-SPE plasmid DNA (Addgene, MA, USA), polymyxin B, and C18 (1.95–500 μM) or ddH2O (control) was incubated in TE (Tris-EDTA) buffer (Invitrogen, CA, USA) at 37 °C for 2 h. The products were detected in 1% agarose gel electrophoresis, and plasmid migration was observed on a G: BOX Chemi XT4 gel doc system.

| Molecule | Kind of interaction with C18 (S. aureus MW2 [1]) | FICI (fractional inhibition concentration index) (S. aureus MW2 [1]) | HL50 (50% of human red blood cells were lysed) (human red blood cells) | other results |
| --- | --- | --- | --- | --- |
| CCCCCCCCCC(=O)N[C@@H](Cc1c[nH]c2ccccc12)C(=O)N[C@H](CC(N)=O)C(=O)N[C@@H](CC(=O)O)C(=O)N[C@@H]1C(=O)NCC(=O)N[C@@H](CCCN)C(=O)N[C@@H](CC(=O)O)C(=O)N[C@H](C)C(=O)N[C@@H](CC(=O)O)C(=O)NCC(=O)N[C@H](CO)C(=O)N[C@@H]([C@H](C)CC(=O)O)C(=O)N[C@@H](CC(=O)c2ccccc2N)C(=O)O[C@@H]1C [daptomycin] | synergistic effect | – | – | – |
| CNC(C)C1CCC(N)C(OC2C(N)CC(N)C(OC3OCC(C)(O)C(NC)C3O)C2O)O1 (stereo not shown) [gentamicin] | additive effect | 1.25 | – | – |
| Cc1onc(-c2ccccc2)c1C(=O)N[C@@H]1C(=O)N2[C@@H]1SC(C)(C)[C@@H]2C(=O)O [oxacillin] | additive effect | 0.75 | – | – |
| CN[C@H](CC(C)C)C(=O)N[C@H]1C(=O)N[C@@H](CC(N)=O)C(=O)N[C@H]2C(=O)N[C@H]3C(=O)N[C@H](C(=O)N[C@H](C(=O)O)c4cc(O)cc(O)c4-c4cc3ccc4O)[C@H](O)c3ccc(c(Cl)c3)Oc3cc2cc(c3O[C@@H]2O[C@H](CO)[C@@H](O)[C@H](O)[C@H]2O[C@H]2C[C@](C)(N)[C@H](O)[C@H](C)O2)Oc2ccc(cc2Cl)[C@H]1O [vancomycin] | additive effect | 0.625 | – | Propidium iodide fluorescence (S. aureus MW2 [2]): unable to induce any fluorescence; MIC against S. aureus MW2, Serum (5%) (S. aureus MW2 [3]; MHB with human serum (5%), 37 °C, 18 h, duplicate, replicated twice): not changed; MIC (S. aureus MW2 [3]; read-out: MIC against S. aureus MW2, CaCl2 (2 mM)): 2 µg/mL (≈ 1.38 µM); MIC (S. aureus MW2 [3]; read-out: MIC against S. aureus MW2, MHB): 2 µg/mL (≈ 1.38 µM); MIC (S. aureus MW2 [3]; read-out: MIC against S. aureus MW2, NaCl (150 mM)): 2 µg/mL (≈ 1.38 µM); Rhodamine-BF fluorescence (dye leakage) [4]: lowest |
| LWKIGKKIWRVLWNWR [C18] | – | – | 16 µg/mL | HL50 relative to MIC against MRSA MW2 (human red blood cells): 4 times; Larvae survival (toxicity) (G. mellonella larvae): more than 70% |
| LWKIWKKIWRVGWNWR [C13] | – | – | 48 µg/mL | – |
| LWKIWKKIWRVWKNWR [C16] | – | – | 16 µg/mL | – |
| LWKIWWKIWRVWKNWR [C22] | – | – | 4 µg/mL | Reduction of live-cell contents (HepG2 cells): 20% |
| polymyxin B | – | – | – | Concentration of significant DNA binding (psGABO-SPE plasmid DNA; 100 ng plasmid, TE buffer, 37 °C, 2 h, 1% agarose gel, 1.95–500 μM tested): 31.2 µM; Concentration of significant DNA binding (psGABO-SPE plasmid DNA; same concentration in brackets): 37.1 µg/mL |
